In patent US20130090305A1, “METHOD USING A DIETARY SUPPLEMENT FOR HEALING OR REGRESSING SYMPTOMS OF GASTROESOPHAGEAL REFLUX DISEASE, GASTRITIS AND ULCERS” (priority 2006, published 2013):

Legend:
[1] = system: chronic GERD, ulcer of 6 cm in the esophagus; experiment: Case of a patient with chronic GERD and a 6 cm esophageal ulcer; type: in vivo, human; settings: before the formulation; regurgitation and heartburn
[2] = system: spontaneous gastric ulcers; settings: 4-week administration in the diet, young pigs; cited from earlier work
[3] = system: nitric oxide biosynthesis; settings: cited from earlier work
gastric acid secretion = settings: cited from earlier work

Structure (SMILES) | relief of symptoms with earlier treatments [1] | incidence of spontaneous gastric ulcers [2] | effect on nitric oxide biosynthesis [3] | action on gastric acid secretion (gastric acid secretion)
O=C([O-])O.[Na+] [baking soda] | Neither treatment produced even partial relief |  |  | 
COc1ccc2[nH]cc(CCNC(C)=O)c2c1 [melatonin, N-Acetyl-5-methoxytryptamine] |  | significantly reduced | inhibits | inhibitory action
